Test results: patent publication US20140308317A1, “Polymeric Compounds And Methods Of Making And Using The Same” (CELLCEUTIX CORPORATION, priority 2012, published 2014)
≈ marks a conversion by molar mass, not a printed value.

Tests used:
[1] = system: Enterococcus faecalis ATCC 29212; test: Minimum Inhibitory Concentration (MIC), modified microbroth dilution; type: cell-based; details: E. faecalis (29212); overnight incubation (18 hours)
[2] = system: Staphylococcus aureus ATCC 27660; test: as above; type: cell-based; details: S. aureus (27660); overnight incubation (18 hours)
[3] = system: Klebsiella pneumoniae ATCC 13883; test: as above; type: cell-based; details: K. pneumoniae (13883); overnight incubation (18 hours)
E. Coli ATCC 25922 = test: as above; type: cell-based; details: E. coli (25922); overnight incubation (18 hours)
HepG2, HB-8065 = test: Cytotoxicity colorimetric (tetrazolium) assay; type: cell-based, human; details: HepG2 cells; one hour with compound in serum-free media
In short: (§1)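 HepG2 (MEM, 10% FBS) and NIH/3T3 (DMEM, 10% BCS) monolayers seeded at 2×10^4 cells/well 24 h before use, then exposed to compounds for one hour in serum-free medium. After return to serum-containing medium, viable cells read by tetrazolium bioreduction to formazan. EC50 in μg/mL from four-parameter logistic fit.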

[4] = system: Pseudomonas aeruginosa ATCC 10145; test: Minimum Inhibitory Concentration (MIC), modified microbroth dilution; type: cell-based; details: P. aeruginosa (10145); overnight incubation (18 hours)
NIH/3T3 cells, CRL-1658 = test: Cytotoxicity colorimetric (tetrazolium) assay; type: cell-based, mouse; details: NIH/3T3 cells; one hour with compound in serum-free media
In short: as §1

Row | Compound | MIC50 E. faecalis [1] | MIC50 S. aureus [2] | MIC50 K. Pnuemnoiae [3] | MIC50 E. coli (E. Coli ATCC 25922) | EC50 HepG2 (cytotoxicity) (HepG2, HB-8065) | MIC50 P. Aeruginosa [4] | EC50 NIH 3T3 (cytotoxicity) (NIH/3T3 cells, CRL-1658)
1 | NCCc1cccc(-c2cc3c(c(-c4cccc(CCN)c4)c2)CCc2ccccc2C3=O)c1 [Compound 152] | 3.13 µg/mL (≈ 7.01 µM) | 1.56 µg/mL (≈ 3.49 µM) | 6.25 µg/mL (≈ 14 µM) | 3.13 µg/mL (≈ 7.01 µM) | 27.5 µg/mL (≈ 61.6 µM) | 25 µg/mL (≈ 56 µM) | 20.9 µg/mL (≈ 46.8 µM)
2 | c1cc(CN2CCNCC2)cc(-c2ccc3sc4ccc(-c5cccc(CN6CCNCC6)c5)cc4c3c2)c1 [Compound 175] | 12.5 µg/mL (≈ 23.5 µM) | 0.39 µg/mL (≈ 0.732 µM) | 12.5 µg/mL (≈ 23.5 µM) | 6.25 µg/mL (≈ 11.7 µM) | 19.4 µg/mL (≈ 36.4 µM) | 25 µg/mL (≈ 46.9 µM) | 19.9 µg/mL (≈ 37.4 µM)
3 | NCCc1cccc(-c2ccc3c(c2)C(=O)c2cc(-c4cccc(CCN)c4)cc(-c4cccc(CCN)c4)c2CC3)c1 [Compound 154] | 6.25 µg/mL (≈ 11 µM) | 0.78 µg/mL (≈ 1.38 µM) | 6.25 µg/mL (≈ 11 µM) | 1.56 µg/mL (≈ 2.76 µM) | 85.4 µg/mL (≈ 151 µM) | 6.25 µg/mL (≈ 11 µM) | 53.4 µg/mL (≈ 94.4 µM)
4 | NCCCOc1cc(OCCCN)cc(-c2cc(F)cc(-c3cc(F)cc(-c4cc(OCCCN)cc(OCCCN)c4)c3)c2)c1 [Compound 148] | 0.78 µg/mL (≈ 1.23 µM) | 0.39 µg/mL (≈ 0.614 µM) | 1.56 µg/mL (≈ 2.46 µM) | 1.56 µg/mL (≈ 2.46 µM) | 244 µg/mL (≈ 384 µM) | 3.13 µg/mL (≈ 4.93 µM) | 53.77 µg/mL (≈ 84.7 µM)
5 | NCCN(CCN)Cc1ccc(F)c(-c2ccc3sc4ccc(-c5cc(CN(CCN)CCN)ccc5F)cc4c3c2)c1 [Compound 180] | 3.13 µg/mL (≈ 5.19 µM) | 0.098 µg/mL (≈ 0.163 µM) | 1.56 µg/mL (≈ 2.59 µM) | 1.56 µg/mL (≈ 2.59 µM) | 104 µg/mL (≈ 173 µM) | 3.13 µg/mL (≈ 5.19 µM) | 43.1 µg/mL (≈ 71.5 µM)
6 | Cc1cc(-c2cc(OCCCN)cc(OCCCN)c2)cc(-c2cc(-c3cc(OCCCN)cc(OCCCN)c3)cc(C)c2F)c1F [Compound 149] | 1.56 µg/mL (≈ 2.35 µM) | 0.78 µg/mL (≈ 1.18 µM) | 3.13 µg/mL (≈ 4.72 µM) | 3.13 µg/mL (≈ 4.72 µM) | 98.5 µg/mL (≈ 149 µM) | 6.25 µg/mL (≈ 9.43 µM) | 59.19 µg/mL (≈ 89.3 µM)
7 | Cc1cc(-c2cc(OCCCN)cc(OCCCN)c2)cc(-c2cc(C)cc(-c3cc(OCCCN)cc(OCCCN)c3)c2)c1 [Compound 147] | 0.78 µg/mL (≈ 1.24 µM) | 0.39 µg/mL (≈ 0.622 µM) | 1.56 µg/mL (≈ 2.49 µM) | 1.56 µg/mL (≈ 2.49 µM) | 164 µg/mL (≈ 262 µM) | 6.25 µg/mL (≈ 9.97 µM) | 50.94 µg/mL (≈ 81.3 µM)
8 | N=C(N)NCCc1cc(CCNC(=N)N)cc(-c2cc(F)cc(-c3cc(F)cc(-c4cc(CCNC(=N)N)cc(CCNC(=N)N)c4)c3)c2)c1 [Compound 151] | 1.56 µg/mL (≈ 2.28 µM) | 0.78 µg/mL (≈ 1.14 µM) | 3.13 µg/mL (≈ 4.58 µM) | 1.56 µg/mL (≈ 2.28 µM) | 254 µg/mL (≈ 372 µM) | 12.5 µg/mL (≈ 18.3 µM) | 72.14 µg/mL (≈ 106 µM)
9 | NCCN(CCN)Cc1cccc(-c2ccc3[nH]c4ccc(-c5cccc(CN(CCN)CCN)c5)cc4c3c2)c1 [Compound 179] | >50 µg/mL | 1.56 µg/mL (≈ 2.84 µM) | >50 µg/mL | 1.56 µg/mL (≈ 2.84 µM) | 615 µg/mL (≈ 1120 µM) | 25 µg/mL (≈ 45.5 µM) | 179 µg/mL (≈ 326 µM)
